{"source": "paper PMC7017600", "about": "(Antiviral research, 2019)", "key": {"BPLF1 1–246 [1]": {"biological_target": "T1, BPLF1 1–246 (Epstein-Barr virus, UniProt P03186)", "T1 sequence (P03186 1-246)": "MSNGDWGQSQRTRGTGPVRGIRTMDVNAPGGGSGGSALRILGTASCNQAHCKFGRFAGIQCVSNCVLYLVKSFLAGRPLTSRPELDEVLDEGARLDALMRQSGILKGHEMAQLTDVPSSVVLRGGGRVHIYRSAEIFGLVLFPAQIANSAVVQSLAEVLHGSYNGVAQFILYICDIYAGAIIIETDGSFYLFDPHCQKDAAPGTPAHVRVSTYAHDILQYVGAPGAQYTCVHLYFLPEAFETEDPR", "assay": "biochemical"}, "BPLF1 1–246 [2]": {"biological_target": "T1, BPLF1 1–246"}, "[3]": {"biological_target": "KSHV ORF64 1–205 N terminal fragment (Human herpesvirus 8 type P, UniProt Q2HR64)", "sequence (Q2HR64 1-205)": "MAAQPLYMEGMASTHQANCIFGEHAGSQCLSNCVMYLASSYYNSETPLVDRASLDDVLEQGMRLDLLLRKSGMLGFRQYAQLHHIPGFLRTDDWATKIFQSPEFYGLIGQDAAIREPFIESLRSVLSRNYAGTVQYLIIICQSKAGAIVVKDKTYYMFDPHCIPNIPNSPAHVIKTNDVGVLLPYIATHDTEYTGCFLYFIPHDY", "assay": "ORF64 DUB activity in Ub-Rhodamine 110 assay", "details": "10 μM suramin, 30 minutes with Ub-Rhodamine 110"}, "KSHV": {"system": "KSHV", "details": "suramin up to 10 μM; for KSHV genome copy number: qPCR of supernatant of reactivated cells"}, "BPLF1 1–246 [4]": {"biological_target": "T1, BPLF1 1–246", "assay": "K63-linked ubiquitin chain cleavage assay", "assay_type": "biochemical, Epstein Barr Virus (EBV)", "details": "10 μM inhibitor, 25 nM BPLF1 1–246, 2 μg K63-linked chains, overnight 37 °C, SDS gel"}, "Cezanne": {"biological_target": "T2, Cezanne (Homo sapiens, UniProt Q6GQQ9)", "T2 sequence (Q6GQQ9 1-843)": "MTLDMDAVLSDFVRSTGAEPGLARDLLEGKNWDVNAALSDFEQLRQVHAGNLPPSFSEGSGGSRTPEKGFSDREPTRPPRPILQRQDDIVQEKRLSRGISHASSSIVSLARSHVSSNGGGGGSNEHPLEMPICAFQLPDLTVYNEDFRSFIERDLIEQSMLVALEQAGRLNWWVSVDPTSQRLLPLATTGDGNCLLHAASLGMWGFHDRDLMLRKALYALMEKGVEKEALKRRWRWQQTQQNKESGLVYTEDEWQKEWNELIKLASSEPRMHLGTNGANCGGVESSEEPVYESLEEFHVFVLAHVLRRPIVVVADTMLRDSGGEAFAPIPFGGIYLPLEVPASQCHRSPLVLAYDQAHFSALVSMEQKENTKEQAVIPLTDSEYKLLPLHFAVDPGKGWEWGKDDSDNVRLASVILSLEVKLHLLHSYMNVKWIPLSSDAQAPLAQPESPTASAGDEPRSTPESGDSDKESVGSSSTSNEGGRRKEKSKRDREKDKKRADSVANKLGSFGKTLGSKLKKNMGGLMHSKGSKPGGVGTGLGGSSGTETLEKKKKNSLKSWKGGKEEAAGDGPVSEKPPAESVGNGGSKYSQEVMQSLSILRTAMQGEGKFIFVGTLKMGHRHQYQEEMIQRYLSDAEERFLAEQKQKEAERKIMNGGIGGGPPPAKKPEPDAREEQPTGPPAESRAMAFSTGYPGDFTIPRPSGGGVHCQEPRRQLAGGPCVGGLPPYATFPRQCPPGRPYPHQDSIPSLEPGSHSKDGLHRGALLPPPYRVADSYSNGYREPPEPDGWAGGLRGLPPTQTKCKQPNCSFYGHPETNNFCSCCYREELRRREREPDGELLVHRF", "assay": "Suramin selectivity, Ub-Rhodamine 110 assay", "assay_type": "biochemical"}, "JosD2": {"biological_target": "T3, JosD2 (Homo sapiens, UniProt Q8TAC2)", "T3 sequence (Q8TAC2 1-188)": "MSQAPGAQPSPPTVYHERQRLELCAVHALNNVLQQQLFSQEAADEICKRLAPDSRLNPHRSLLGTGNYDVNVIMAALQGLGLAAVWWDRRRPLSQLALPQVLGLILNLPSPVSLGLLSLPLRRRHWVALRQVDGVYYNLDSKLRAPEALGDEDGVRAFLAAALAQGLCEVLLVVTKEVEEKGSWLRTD", "assay": "Suramin selectivity, Ub-Rhodamine 110 assay", "assay_type": "biochemical"}, "Atax3L": {"biological_target": "T4, Atax3L (Homo sapiens, UniProt Q9H3M9)", "T4 sequence (Q9H3M9 1-355)": "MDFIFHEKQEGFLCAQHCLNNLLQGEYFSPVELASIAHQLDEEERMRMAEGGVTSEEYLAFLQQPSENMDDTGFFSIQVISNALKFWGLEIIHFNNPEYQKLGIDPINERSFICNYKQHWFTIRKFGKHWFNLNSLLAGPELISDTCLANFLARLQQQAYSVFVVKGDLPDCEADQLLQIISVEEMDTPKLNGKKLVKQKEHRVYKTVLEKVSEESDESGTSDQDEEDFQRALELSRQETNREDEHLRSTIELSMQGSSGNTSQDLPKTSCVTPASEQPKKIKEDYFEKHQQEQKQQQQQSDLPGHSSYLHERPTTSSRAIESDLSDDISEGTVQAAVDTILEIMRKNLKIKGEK", "assay": "Suramin selectivity, Ub-Rhodamine 110 assay", "assay_type": "biochemical"}, "UCH-L1": {"biological_target": "T5, UCH-L1 (Homo sapiens, UniProt P09936)", "T5 sequence (P09936 1-223)": "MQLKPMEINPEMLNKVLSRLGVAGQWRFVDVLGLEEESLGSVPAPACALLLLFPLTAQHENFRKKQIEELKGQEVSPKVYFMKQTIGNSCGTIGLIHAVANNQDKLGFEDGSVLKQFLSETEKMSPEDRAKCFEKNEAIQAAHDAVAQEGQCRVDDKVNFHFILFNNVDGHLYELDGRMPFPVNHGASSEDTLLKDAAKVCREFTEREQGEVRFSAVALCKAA", "assay": "Suramin selectivity, Ub-Rhodamine 110 assay", "assay_type": "biochemical"}, "UCH-L5": {"biological_target": "T6, UCH-L5 (Homo sapiens, UniProt Q9Y5K5)", "T6 sequence (Q9Y5K5 1-329)": "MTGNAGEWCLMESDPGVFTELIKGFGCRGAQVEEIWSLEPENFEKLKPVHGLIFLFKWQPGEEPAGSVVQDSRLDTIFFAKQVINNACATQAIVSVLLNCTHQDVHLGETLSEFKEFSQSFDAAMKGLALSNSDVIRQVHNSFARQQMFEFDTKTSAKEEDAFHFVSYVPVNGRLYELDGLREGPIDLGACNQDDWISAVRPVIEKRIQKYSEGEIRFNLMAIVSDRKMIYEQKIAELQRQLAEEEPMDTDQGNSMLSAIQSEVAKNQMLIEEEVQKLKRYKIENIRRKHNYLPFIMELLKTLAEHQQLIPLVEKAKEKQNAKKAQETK", "assay": "Suramin selectivity, Ub-Rhodamine 110 assay", "assay_type": "biochemical"}, "Bap1": {"biological_target": "Bap1 (Homo sapiens, UniProt Q92560)", "sequence (Q92560 whole entry)": "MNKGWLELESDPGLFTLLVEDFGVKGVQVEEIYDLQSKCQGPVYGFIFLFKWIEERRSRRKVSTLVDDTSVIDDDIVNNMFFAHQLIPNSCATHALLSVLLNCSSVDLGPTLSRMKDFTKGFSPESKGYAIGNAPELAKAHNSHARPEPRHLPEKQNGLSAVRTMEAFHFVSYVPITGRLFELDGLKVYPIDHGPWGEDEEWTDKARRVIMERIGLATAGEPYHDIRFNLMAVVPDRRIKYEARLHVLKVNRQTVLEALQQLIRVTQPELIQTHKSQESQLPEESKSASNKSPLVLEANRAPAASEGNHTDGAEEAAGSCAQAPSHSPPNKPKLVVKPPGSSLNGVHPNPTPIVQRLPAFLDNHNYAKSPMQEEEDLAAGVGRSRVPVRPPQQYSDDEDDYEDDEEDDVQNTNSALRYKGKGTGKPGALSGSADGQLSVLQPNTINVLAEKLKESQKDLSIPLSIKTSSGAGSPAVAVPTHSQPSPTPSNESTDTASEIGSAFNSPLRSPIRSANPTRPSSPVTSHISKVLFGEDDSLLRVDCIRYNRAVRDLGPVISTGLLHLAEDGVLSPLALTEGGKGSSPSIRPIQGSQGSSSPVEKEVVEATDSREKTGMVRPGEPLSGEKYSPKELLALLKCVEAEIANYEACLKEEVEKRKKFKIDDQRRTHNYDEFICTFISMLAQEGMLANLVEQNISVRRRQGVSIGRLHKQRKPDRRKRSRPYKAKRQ", "assay": "Suramin selectivity, Ub-Rhodamine 110 assay", "assay_type": "biochemical"}, "PLPro": {"biological_target": "PLPro (Severe acute respiratory syndrome coronavirus, UniProt P0C6X7)", "assay": "biochemical"}, "USP8c": {"biological_target": "T7, USP8c (Homo sapiens, UniProt P40818)", "T7 sequence (P40818 777-1109 limits assumed)": "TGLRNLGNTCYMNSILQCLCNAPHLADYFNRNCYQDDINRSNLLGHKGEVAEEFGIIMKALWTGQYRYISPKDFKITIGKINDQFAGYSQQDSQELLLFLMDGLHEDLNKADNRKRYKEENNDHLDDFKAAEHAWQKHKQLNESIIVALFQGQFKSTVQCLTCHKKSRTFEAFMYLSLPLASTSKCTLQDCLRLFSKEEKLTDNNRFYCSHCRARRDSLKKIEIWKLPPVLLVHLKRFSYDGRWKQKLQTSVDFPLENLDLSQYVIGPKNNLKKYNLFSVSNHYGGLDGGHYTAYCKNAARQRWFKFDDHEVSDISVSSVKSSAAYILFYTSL", "assay": "Suramin selectivity, Ub-Rhodamine 110 assay", "assay_type": "biochemical"}, "BPLF1 1–246 [5]": {"biological_target": "T1, BPLF1 1–246", "assay": "Suramin selectivity, Ub-Rhodamine 110 assay", "assay_type": "biochemical, Epstein Barr Virus (EBV)"}, "[6]": {"system": "pool of cellular DUBs (293T cell lysate)", "assay": "Cellular DUB activity in 293T total cell lysate, Ub-Rhodamine 110", "assay_type": "biochemical", "details": "10 μM suramin, 293T lysate"}, "293 EBV+ cells": {"system": "293 EBV+ cells", "assay": "Cell viability by trypan blue exclusion", "details": "48 h, concentrations up to 10 μM"}, "EBV": {"system": "EBV", "assay": "EBV infectious virus production, titered on Raji cells", "details": "293 EBV+ cells induced with BZLF1, 48 h, at the concentrations tested"}}, "note": "Where a name gives a salt, the structure may show the parent alone. Read-outs that look alike come from different tables or passages of the source."}
{"molecule": "Cc1cc2c(C(C)C)c(O)c(O)c(C=O)c2c(O)c1-c1c(C)cc2c(C(C)C)c(O)c(O)c(C=O)c2c1O", "note": "[Gossypol]", "values": [{"measurement": "IC50", "setting": "BPLF1 1–246 [1]", "result": 3, "unit": "µM"}]}
{"molecule": "CN(N=O)c1ccc(O)c(O)c1", "note": "[Me-3,4-dephostatin]", "values": [{"measurement": "IC50", "setting": "BPLF1 1–246 [2]", "result": "> 10", "unit": "µM"}]}
{"molecule": "Cc1ccc(C(=O)Nc2ccc(S(=O)(=O)O)c3cc(S(=O)(=O)O)cc(S(=O)(=O)O)c23)cc1NC(=O)c1cccc(NC(=O)Nc2cccc(C(=O)Nc3cc(C(=O)Nc4ccc(S(=O)(=O)O)c5cc(S(=O)(=O)O)cc(S(=O)(=O)O)c45)ccc3C)c2)c1", "note": "[suramin, Suramin sodium salt]", "values": [{"measurement": "decrease in ORF64 DUB activity", "setting": "[3]", "result": "> 80", "unit": "%"}, {"measurement": "KSHV reactivation from latency", "setting": "KSHV; % reactivation of latently infected cells", "result": "no significant effect"}, {"measurement": "KSHV genome copy number", "setting": "KSHV", "result": "no significant effect"}, {"measurement": "KSHV genome copy number", "setting": "KSHV; listed as Suramin", "result": "does not inhibit genome copy production"}, {"measurement": "KSHV infectious virus production", "setting": "KSHV; supernatants 72 h post dox, infection of naïve 293 cells", "result": "no significant effect"}, {"measurement": "inhibition of K63-linked ubiquitin chain cleavage", "setting": "BPLF1 1–246 [4]", "result": "inhibited K63-linked chain cleavage"}, {"measurement": "IC50", "setting": "BPLF1 1–246 [1]", "result": 0.98, "unit": "µM"}, {"measurement": "IC50", "setting": "Cezanne", "result": 1.6, "unit": "µM"}, {"measurement": "IC50", "setting": "JosD2", "result": 28, "unit": "µM"}, {"measurement": "IC50", "setting": "Atax3L", "result": 2.6, "unit": "µM"}, {"measurement": "IC50", "setting": "UCH-L1", "result": 3.6, "unit": "µM"}, {"measurement": "IC50", "setting": "UCH-L5", "result": 1.5, "unit": "µM"}, {"measurement": "IC50", "setting": "Bap1", "result": 3.4, "unit": "µM"}, {"measurement": "IC50", "setting": "PLPro", "result": 3.2, "unit": "µM"}, {"measurement": "IC50", "setting": "USP8c", "result": 3, "unit": "µM"}, {"measurement": "IC50", "setting": "BPLF1 1–246 [5]", "result": 3.3, "unit": "µM"}, {"measurement": "inhibition of the pool of cellular DUBs", "setting": "[6]", "result": "about 50%"}]}
{"molecule": "OC[C@H]1O[C@H]([S-])[C@H](O)[C@@H](O)[C@@H]1O.[Au+]", "note": "[Aurothioglucose]", "values": [{"measurement": "inhibition of K63-linked ubiquitin chain cleavage", "setting": "BPLF1 1–246 [4]", "result": "inhibited K63-linked chain cleavage"}, {"measurement": "IC50", "setting": "BPLF1 1–246 [2]", "result": 2.5, "unit": "µM"}, {"measurement": "cell growth or viability", "setting": "293 EBV+ cells", "result": "not inhibit cell growth or viability"}, {"measurement": "infectious virus production (in words)", "setting": "EBV", "result": "did not result in decreased virus production"}]}
{"molecule": "O=C(O)C1=CC(=C(c2ccc(O)c(C(=O)O)c2)c2ccc(O)c(C(=O)O)c2)C=CC1=O", "note": "[Aurintricarboxylic acid]", "values": [{"measurement": "IC50", "setting": "BPLF1 1–246 [1]", "result": 3.3, "unit": "µM"}]}
{"molecule": "Ub-aldehyde", "values": [{"measurement": "inhibition of BPLF1 1–246 DUB activity", "setting": "BPLF1 1–246 [2]; 5 μM Ub-aldehyde (low signal control)", "result": "approximately 95%"}]}
{"molecule": "NC(Cc1cc(O)c(O)cc1O)C(=O)O", "note": "(racemic) [6-Hyd roxy-DL-DOPA]", "values": [{"measurement": "IC50", "setting": "BPLF1 1–246 [2]", "result": "> 10", "unit": "µM"}]}
{"molecule": "C[C@]12C=CC(=O)C=C1CC[C@@H]1C2=CC[C@]2(C)[C@@H](C(=O)CN3CCN(c4cc(N5CCCC5)nc(N5CCCC5)n4)CC3)CC[C@@H]12", "note": "[U-74389G maleate]", "values": [{"measurement": "IC50", "setting": "BPLF1 1–246 [2]", "result": 3.4, "unit": "µM"}]}
{"molecule": "O=C1C(SCCO)=C(SCCO)C(=O)c2ccccc21", "note": "[NSC 95397]", "values": [{"measurement": "inhibition of K63-linked ubiquitin chain cleavage", "setting": "BPLF1 1–246 [4]", "result": "inhibited K63-linked chain cleavage"}, {"measurement": "IC50", "setting": "BPLF1 1–246 [2]", "result": 4.8, "unit": "µM"}]}
{"molecule": "O=C(Nc1cccc(C(=O)Nc2ccc(S(=O)(=O)O)c3cc(S(=O)(=O)O)cc(S(=O)(=O)O)c23)c1)Nc1cccc(C(=O)Nc2ccc(S(=O)(=O)O)c3cc(S(=O)(=O)O)cc(S(=O)(=O)O)c23)c1", "note": "[NF 023]", "values": [{"measurement": "IC50", "setting": "BPLF1 1–246 [2]", "result": 6.1, "unit": "µM"}]}
{"molecule": "CC1(C)CCC2=C(O1)c1ccccc1C(=O)C2=O", "note": "[beta-lapachone]", "values": [{"measurement": "inhibition of K63-linked ubiquitin chain cleavage", "setting": "BPLF1 1–246 [4]", "result": "inhibited K63-linked chain cleavage"}, {"measurement": "IC50", "setting": "BPLF1 1–246 [1]", "result": 2.5, "unit": "µM"}]}
{"molecule": "Cc1nc(N=Nc2cc(S(=O)(=O)O)c3cc([N+](=O)[O-])cc(S(=O)(=O)O)c3c2)c(COP(=O)(O)O)c(C=O)c1O", "note": "[PPNDS tetrasodium]", "values": [{"measurement": "IC50", "setting": "BPLF1 1–246 [2]", "result": "> 10", "unit": "µM"}]}
